Results on 9 compounds are retold here after patent publication US20170334899A1, “AMINO-SUBSTITUTED ISOTHIAZOLES” (Bayer Pharma Aktiengesellschaft, priority 2014, published 2017).

For one test, the target named is T1, CDK2/CycE (Homo sapiens, UniProt P24941).
T1 construct: GST; purchased ProQinase GmbH (Freiburg, Germany); host or cells: insect cells (Sf9)
Briefly: CDK2/CycE kinase assay (TR-FRET). It counts as biochemical. The following applies: avg, read-out: CDK2 avg (IC50 [mol/l]). Put shortly: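 GST-tagged human CDK2 and CycE from Sf9 cells, preincubated 15 min with compound, then 25 min at 22° C. with 10 μM ATP and 0.75 μM biotinylated Rb-derived peptide (final). Phospho-substrate read by TR-FRET (anti-pRB pSer807/pSer811, Eu anti-mouse IgG, streptavidin-XL665), 665/620 nm ratio, normalised to no-inhibitor and no-enzyme controls.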

The test system of test [1] is human cervical tumor cell line HeLa (ATCC CCL-2). Put plainly: SAC-Formation - Paclitaxel-Induced Assay. The test is classed as cell-based. The following applies: Homo sapiens, HeLa, 24 h, HeLa cells, paclitaxel 0.05 μM, test range 0.005 μM-20 μM, read-out: IC50 [mol/l] SAC-Formation - Paclitaxel-Induced Assay. Put shortly: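 HeLa cells incubated overnight at 37° C, then given paclitaxel (0.05 μM final) plus test compound (0.005–20 μM, 0.5% DMSO) together for 24 h at 37° C. Fixed cells stained for phospho-histone H3 Ser10 (mitotic cells) and Hoechst 33342 (cell count); imaging-derived mitotic index fitted by four-parameter Hill equation.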

`Cc1nsc(Nc2cc(C#N)ccn2)c1C(=O)Nc1cccc(C(=O)OC(C)(C)C)c1` [Example 239, tert-butyl 3-[({5-[(4-cyanopyridin-2-yl)amino]-3-methyl-1,2-thiazol-4-yl}carbonyl)amino]benzoate]: the IC50 at CDK2/CycE was more than 20 µM; in test [1], 0.63 µM.

`Cc1nsc(Nc2ccc(C#N)cn2)c1C(=O)Nc1cccc(C(=O)OC(C)(C)C)c1` [Example 240, tert-butyl 3-[({5-[(5-cyanopyridin-2-yl)amino]-3-methyl-1,2-thiazol-4-yl}carbonyl)amino]benzoate]: the IC50 was more than 20 µM on CDK2/CycE and 0.07 µM in test [1].

Take `Cc1nsc(Nc2cnc3ccccc3n2)c1C(=O)Nc1ccc(NC2CCCN(C(=O)OC(C)(C)C)C2)nc1` (stereo not drawn) [Example 241, tert-butyl 3-{[5-({[3-methyl-5-(quinoxalin-2-ylamino)-1,2-thiazol-4-yl]carbonyl}amino)pyridin-2-yl]amino}piperidine-1-carboxylate]: the IC50 on CDK2/CycE is more than 20 µM; in test [1], 2.3 µM.

As for `Cc1nsc(Nc2cc(C#N)ccn2)c1C(=O)Nc1ccc(NC2CCCNC2)nc1` (stereo not drawn) [Example 242, 5-[(4-cyanopyridin-2-yl)amino]-3-methyl-N-[6-(piperidin-3-ylamino)pyridin-3-yl]-1,2-thiazole-4-carboxamide], the IC50 on CDK2/CycE was more than 20 µM; in test [1], 3.3 µM.

For the compound `Cc1cc(C)n(-c2ccccc2NC(=O)c2c(C)nsc2Nc2cnc3ccccc3n2)n1` [Example 243, N-[2-(3,5-dimethyl-1H-pyrazol-1-yl)phenyl]-3-methyl-5-(quinoxalin-2-ylamino)-1,2-thiazole-4-carboxamide], the IC50 on CDK2/CycE is more than 20 µM; in test [1] it was 6.5 µM.

Turning to `Cc1nsc(Nc2cnc3ccccc3n2)c1C(=O)Nc1ccc(NCCNC(=O)OC(C)(C)C)nc1` [Example 244, tert-butyl (2-{[5-({[3-methyl-5-(quinoxalin-2-ylamino)-1,2-thiazol-4-yl]carbonyl}amino)pyridin-2-yl]amino}ethyl)carbamate], the IC50 was more than 20 µM on CDK2/CycE and 3.9 µM in test [1].

With `Cc1nsc(Nc2cnc3ccccc3n2)c1C(=O)Nc1ccc(Nc2ccc(F)c(F)c2)nc1` [Example 245, N-{6-[(3,4-difluorophenyl)amino]pyridin-3-yl}-3-methyl-5-(quinoxalin-2-ylamino)-1,2-thiazole-4-carboxamide], the IC50 at CDK2/CycE was determined as 12 µM; in test [1], 1.7 µM.

As to `Cc1nsc(Nc2ccc(C#N)cn2)c1C(=O)Nc1ccc(S(C)(=O)=O)cc1` [Example 246, 5-[(5-cyanopyridin-2-yl)amino]-3-methyl-N-[4-(methylsulfonyl)phenyl]-1,2-thiazole-4-carboxamide], the IC50 at CDK2/CycE was more than 20 µM; in test [1], 0.077 µM.

For `CCN(CC)CCNC(=O)c1cccc(NC(=O)c2c(C)nsc2Nc2cnccn2)c1` [Example 247, N-(3-{[2-(diethylamino)ethyl]carbamoyl}phenyl)-3-methyl-5-(pyrazin-2-ylamino)-1,2-thiazole-4-carboxamide], the IC50 on CDK2/CycE was more than 20 µM; in test [1], 0.14 µM.
